Laboratory results as given in US8501740B2, “Methods of treatment of opioid tolerance, physical dependence, pain and addiction with inhibitors of certain growth factor receptors” (priority 2007, dated 2013).
“Also recorded” adds a separate entry of the source.

Experiments:
rat = test: Tail-flick latency (TFL) test of morphine analgesia and tolerance; assay type: in vivo; conditions: for Analgesic effect of the drug itself: administered alone, without morphine; for Development versus behavioral expression of morphine tolerance (tail flick latency): co-administered with morphine for several days, then morphine alone on the final day; for Effect on analgesic effect of morphine given subsequently: drug in 10% cyclodextrin vehicle for 4 days, morphine alone on day 5; for Reversal of established morphine tolerance: morphine given for varying periods, then drug added
Experimental: Analgesic effectiveness is typically studied using the tail-flick test, where a hot light is shined on a rat's tail and the time required for the rat to move (“flick”) its tail recorded (TFL, or tail flick latency).
To determine whether GLEEVEC® (imatinib) blocked the development or expression of tolerance, morphine and GLEEVEC® (imatinib) was co-administered for 4 days, and then on day 5 morphine alone was administered.
To determine whether IRESSA® (gefitinib) blocked the development or expression of tolerance, morphine and IRESSA® (gefitinib) was co-administered for 4 days, and then on day 5 morphine alone was administered.
(§1) A drug can inhibit the expression of narcotic tolerance if it is analgesic itself or if previous drug administration alters subsequent narcotic analgesia. To determine whether either of these possibilities were the case, animals were treated animals with either the cyclodextrin-based vehicle used to solubilize GLEEVEC® (imatinib) (10% CDSBE) or GLEEVEC® (imatinib) in vehicle for 4 days, and then on the fifth day were given morphine alone.
as §1, with “altered” for “alters subsequent”, “IRESSA® (gefitinib)” for “GLEEVEC® (imatinib)”, “CAPTISOL® (sulfobutylether-β-cyclodextrin))” for “CDSBE)”
Another possible explanation for apparent inhibition of opioid tolerance would be that GLEEVEC® (imatinib) or IRESSA® (gefitinib) could alter morphine pharmacokinetics, causing a different time course of analgesia with co-administration.
Next it was desirable to determine if GLEEVEC® (imatinib) could reverse morphine tolerance. NMDA antagonists, which are known to inhibit the development of morphine tolerance, can only partially reverse morphine tolerance, and cannot reverse established tolerance. In addition, NMDA antagonists are highly toxic (many are chemically related to PCP), which also severely limits their clinical use. To determine whether GLEEVEC® (imatinib) could reverse established morphine tolerance, morphine was given for varying periods of time, and then GLEEVEC® (imatinib) was added. […] On day 7, morphine alone was given to all groups.

[1] = tested on: rats that have undergone sciatic nerve ligation; test: Sciatic nerve ligation model of neuropathic pain, Von Frey hair testing; assay type: in vivo; conditions: for Effect upon allodynia / analgesia (Von Frey hairs): sciatic nerve ligation, alone or co-administered as labelled
Excerpt: (§2) To test the methods of treatment presented herein, we use the sciatic nerve ligation model of Chung et al. (model of neuropathic pain). Chung, J. M., H. K. Kim, and K. Chung, Segmental Spinal Nerve Ligation Model Of Neuropathic Pain, Methods Mol Med, 2004. 99: p. 35-45. Animals undergo this ligation procedure, are allowed to recover, and tested for pain sensitivity using Von Frey hairs and/or pressure testing.
as §2, with “spinal nerve ligation model of neuropathic pain.” for “Spinal Nerve Ligation Model Of Neuropathic Pain,”

[2] = tested on: animals made physically dependent upon morphine; test: Morphine physical dependence, naloxone-precipitated withdrawal; assay type: in vivo; conditions: morphine pellets, drug systemically twice daily
Excerpt: Animals were pelleted with continuous release morphine pellets, and treated with GLEEVEC® (imatinib) systemically twice daily. Withdrawal was precipitated by injection of naloxone.

PDGF receptor = conditions: cited from earlier work
PDGFR-beta = PDGFR-beta tyrosine phosphorylation in cell lines (immunoprecipitation, Western blotting with PY-20); assay type: cell-based
Experimental: Cells were treated with morphine, gabapentin, morphine and gabapentin, or water for 40 minutes. Cells were then washed, lysed, and immunoprecipitation was performed using a PDGFR-beta antibody. Western blotting was then performed using PY-20 antibody, which detects tyrosine phosphorylation. Blots were then stripped and re-probed with PDGFR-beta antibody to control for the amount of PDGFR-beta loaded in each lane.

[3] = tested on: alcohol dependent animals; conditions: cited from earlier work

Compound | Analgesic effect of the drug itself (rat) | Inhibition of tolerance when co-administered with morphine from the beginning (rat) | Development versus behavioral expression of morphine tolerance (tail flick latency) (rat) | Effect on analgesic effect of morphine given subsequently (rat) | Reversal of established morphine tolerance (rat) | Inhibition of morphine tolerance (rat; spinally administered, initial studies) | Effect upon allodynia / analgesia (Von Frey hairs) [1] | Weight loss in precipitated withdrawal [2] | Withdrawal behaviors in precipitated withdrawal [2] | Inhibition of receptor tyrosine kinase activity of the PDGF receptor (PDGF receptor) | Doses required to block behavioral expression of tolerance, relative to GLEEVEC (imatinib) (rat; rat, in vivo) [fold higher] | Number of doses to achieve peak effect ([1]; sciatic nerve ligation model) | Block of morphine-induced PDGFR-beta phosphorylation / PDGFR activation (PDGFR-beta; co-administration with morphine, 40 minutes) | Alcohol intake and self-administration ([3]; alcohol dependent animals) | Anxiogenic effects of alcohol withdrawal ([3]; alcohol dependent rats) | Time of peak analgesic effect (rat; time course on 4 consecutive days) [min] | Increase in PDGFR-beta phosphorylation (PDGFR-beta; cells treated for 40 minutes) [%]
Cc1ccc(NC(=O)c2ccc(CN3CCN(C)CC3)cc2)cc1Nc1nccc(-c2cccnc2)n1 [GLEEVEC® (imatinib), imatinib] | do not exhibit analgesic effects; also recorded: neither GLEEVEC® (imatinib) nor vehicle was analgesic when administered alone; also recorded: no analgesic effect at any time point | inhibited tolerance | inhibits the behavioral expression, not the development of opioid tolerance; also recorded: blocked the behavioral expression of morphine tolerance; also recorded: inhibited the expression of tolerance alone | do not exhibit analgesic effects, or interfere with the analgesic effects of morphine; also recorded: did not alter the analgesic effect of morphine given subsequently on day 5 | completely reverses and inhibits the behavioral expression of tolerance; also recorded: completely reversed tolerance | inhibited morphine tolerance | neither morphine nor GLEEVEC® (imatinib) alone have analgesic properties; also recorded: had no effect upon allodynia | without affecting weight loss; also recorded: Weight loss was not affected | reduces the behavioral expression of paw shakes and wet dog shakes; also recorded: withdrawal behaviors such as teeth chattering and wet dog shakes were reduced | inhibit the receptor tyrosine kinase activity of the PDGF receptor | – | – | – | – | – | – | –
COc1cc2ncnc(Nc3ccc(F)c(Cl)c3)c2cc1OCCCN1CCOCC1 [IRESSA® (gefitinib), gefitinib] | do not exhibit analgesic effects; also recorded: neither IRESSA® (gefitinib) nor vehicle was analgesic when administered alone | – | inhibits the development, not the behavioral expression of opioid tolerance; also recorded: inhibited the development of morphine tolerance | do not exhibit analgesic effects, or interfere with the analgesic effects of morphine; also recorded: did not alter the analgesic effect of morphine given on day 5 | – | – | neither morphine nor IRESSA® (gefitinib) alone have analgesic properties; also recorded: had no effect upon allodynia | – | – | – | – | – | – | – | – | – | –
NCC1(CC(=O)O)CCCCC1 [gabapentin] | not analgesic itself | blocks tolerance | blocks the behavioral expression of tolerance | – | reverses established tolerance | – | does not cause complete analgesia | – | – | – | 10 to 100 | takes several doses to achieve its peak effect | blocked by co-administration of gabapentin | reduce alcohol intake and self-administration | reversing anxiogenic effects of alcohol withdrawal | – | –
CN1CC[C@]23c4c5ccc(O)c4O[C@H]2[C@@H](O)C=C[C@H]3[C@H]1C5 [morphine] | – | – | – | – | – | – | neither morphine nor IRESSA® (gefitinib) alone have analgesic properties; also recorded: neither morphine nor GLEEVEC® (imatinib) alone have analgesic properties; also recorded: had no effect upon allodynia | – | – | – | – | – | – | – | – | 30 | 40
